From patent US11672788B2, “Histone deacetylase inhibitors for immunomodulation in tumor microenvironment” (GREAT NOVEL THERAPEUTICS BIOTECH & MEDICALS CORPORATION, priority 2020, dated 2023)
In brackets after ≈: the same amount, converted by molar mass.

Assays:
SK-BR-3 = experiment: In vitro cytotoxicity MTT assay; type: cell-based; details: Homo sapiens, 72 h, IC50 ± SD
Procedure: (§1) Six different cell lines were used, including human breast cancer cell line MDA-MB-231 (6×10^3), MDA-MB-453 (2.4×10^4), SK-BR-3 (6×10^3), human breast epithelial cell line M10 (6×10^3), human gastric carcinoma NCI-N87 (2.4×10^4), and human colorectal adenocarcinoma SW48 (2.4×10^4), and seeded in a 96 well plate. Cell lines were obtained from Bioresource Collection and Research Center, BCRC, Taiwan. […] After 72 h, MTT assay (Cayman™) was used to determine the cellular viability.

M10 = experiment: In vitro cytotoxicity MTT assay; type: cell-based, human; details: Homo sapiens, M10, 72 h, IC50 ± SD
Procedure: as §1

MDA-MB-453 = experiment: In vitro cytotoxicity MTT assay; type: cell-based, human; details: Homo sapiens, MDA-MB-453, 72 h, IC50 ± SD
Procedure: as §1

MDA-MB-231 = experiment: In vitro cytotoxicity MTT assay; type: cell-based, human; details: Homo sapiens, MDA-MB-231, 72 h, IC50 ± SD
Procedure: as §1

SW48 = experiment: In vitro cytotoxicity MTT assay; type: cell-based, human; details: Homo sapiens, SW48, 72 h, IC50 ± SD
Procedure: as §1

Saturation solubility = type: physicochemical; details: ddH2O, 25° C., mean ± SD, BDL: Below detection limit
Procedure: Samples of 5 mg of compounds were added to 5 ml volumetric flasks containing ddH2O and shaken at 100 rpm in an incubator at 25° C. for 90 minutes. The resulting suspension was filtered through a 0.22 μm filter. The concentrations of compounds were determined spectrophotometrically at 256 nm. The saturation solubility of each sample was determined in triplicates and the mean value and standard deviation were reported.

HDAC3 [1] = molecular target: T1, HDAC3 (Homo sapiens (Human), UniProt O15379); experiment: HDACs 1, 2, and 3 enzymatic inhibition (fluorogenic kit, 1 h); type: biochemical; details: 37° C.
T1 sequence (O15379 whole entry): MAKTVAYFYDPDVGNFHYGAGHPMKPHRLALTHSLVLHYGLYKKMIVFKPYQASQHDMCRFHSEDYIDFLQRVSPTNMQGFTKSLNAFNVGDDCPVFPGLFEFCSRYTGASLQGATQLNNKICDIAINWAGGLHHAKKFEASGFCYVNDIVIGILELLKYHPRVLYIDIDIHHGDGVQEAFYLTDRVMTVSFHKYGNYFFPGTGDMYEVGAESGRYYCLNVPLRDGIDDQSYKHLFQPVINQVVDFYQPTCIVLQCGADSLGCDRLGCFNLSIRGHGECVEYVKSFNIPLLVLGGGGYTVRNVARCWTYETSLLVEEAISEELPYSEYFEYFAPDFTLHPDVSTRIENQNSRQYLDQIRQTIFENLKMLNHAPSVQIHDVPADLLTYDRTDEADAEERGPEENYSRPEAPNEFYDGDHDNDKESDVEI
T1 sequence (Q9Y618 395-489 partner): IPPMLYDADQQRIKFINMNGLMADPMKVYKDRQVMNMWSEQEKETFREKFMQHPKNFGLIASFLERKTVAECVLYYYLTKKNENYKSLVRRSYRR
Procedure: (§2) HDACs assay was performed according to standard Protocols (Fluorgenic HDACs 1, 2, and 3 assay kit, BPS Bioscience™). […] After 1 h, assay developer was added to the samples and the absorbance was read at fluorogenic wavelength. The relative inhibition to HDACs 1, 2, and 3 activities in each sample was determined.

HDAC1 = HDAC1 (Homo sapiens (Human), UniProt Q13547); experiment: as above; type: biochemical; details: 37° C.
Chain of HDAC1 (Q13547 whole entry): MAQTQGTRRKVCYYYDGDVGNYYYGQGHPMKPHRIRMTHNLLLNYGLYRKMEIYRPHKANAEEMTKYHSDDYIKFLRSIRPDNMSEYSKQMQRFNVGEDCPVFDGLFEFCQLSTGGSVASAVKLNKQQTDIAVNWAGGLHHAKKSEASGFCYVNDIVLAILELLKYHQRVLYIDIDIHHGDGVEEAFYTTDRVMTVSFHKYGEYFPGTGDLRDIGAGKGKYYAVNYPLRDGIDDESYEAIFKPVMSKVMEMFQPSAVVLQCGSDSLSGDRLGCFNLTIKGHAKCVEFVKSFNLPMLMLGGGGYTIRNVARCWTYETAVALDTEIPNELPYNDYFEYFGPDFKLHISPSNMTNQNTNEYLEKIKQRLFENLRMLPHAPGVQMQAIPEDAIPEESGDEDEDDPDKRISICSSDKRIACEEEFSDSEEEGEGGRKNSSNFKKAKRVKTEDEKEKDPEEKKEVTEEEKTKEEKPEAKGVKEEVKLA
Procedure: as §2

HDAC2 = HDAC2 (Homo sapiens (Human), UniProt Q92769); experiment: as above; type: biochemical; details: 37° C.
Chain of HDAC2 (Q92769 whole entry): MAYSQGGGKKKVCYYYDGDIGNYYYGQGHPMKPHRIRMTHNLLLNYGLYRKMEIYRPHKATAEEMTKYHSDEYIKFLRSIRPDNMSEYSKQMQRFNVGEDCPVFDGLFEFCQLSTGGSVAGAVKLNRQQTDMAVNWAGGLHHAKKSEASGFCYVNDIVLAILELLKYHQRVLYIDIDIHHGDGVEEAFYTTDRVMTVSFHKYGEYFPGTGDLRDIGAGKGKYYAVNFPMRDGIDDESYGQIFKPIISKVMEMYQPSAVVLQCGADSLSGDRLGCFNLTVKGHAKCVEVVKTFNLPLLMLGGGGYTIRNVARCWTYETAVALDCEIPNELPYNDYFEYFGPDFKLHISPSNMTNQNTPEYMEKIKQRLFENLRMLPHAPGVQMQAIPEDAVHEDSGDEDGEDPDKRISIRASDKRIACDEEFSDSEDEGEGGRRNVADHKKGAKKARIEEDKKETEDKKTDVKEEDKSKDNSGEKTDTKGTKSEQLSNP
Procedure: as §2

HDAC3 [2] = molecular target: T1, HDAC3; experiment: HDAC3 enzymatic kinetic assay; type: biochemical; details: 2 μM; 20 min, 40 min and 60 min
Procedure: as §2, with “HDAC3 enzymatic kinetic” for “HDACs”, “HDAC3” for “HDACs 1, 2, and 3”, “incubation,” for “1 h,”, “HDAC3 activity” for “HDACs 1, 2, and 3 activities”

SW48 cells [3] = experiment: Cell cycle arrest by PI flow cytometry; type: cell-based, human; details: for Percentage of Cell Cycle Distribution G0/G1 / Percentage of Cell Cycle Distribution G2/M / Percentage of Cell Cycle Distribution S: 72 h; for Cell cycle arrest: SW48, doses of Table 12
Procedure: (§3) A PI/RNase staining assay (BD Bioscience™) was performed to reveal the presence of cell cycle arrest and apoptotic cells after treatment with GNTbm compounds, Chidamide and Entinostat. […] After treatment cells were harvested, fixed with 80% ethanol for 24 h, washed with 1×PBS and stained with PI/RNase for 15 min at room temperature. The cells were then analyzed using Flow Cytometer within 1 h.

NCI-N87 = experiment: In vitro cytotoxicity MTT assay; type: cell-based; details: Homo sapiens, 72 h, IC50 ± SD
Procedure: as §1

SW48 cells [4] = experiment: Cell apoptosis (sub-G1) by PI flow cytometry; type: cell-based, human; details: 72 h; for Induction of apoptosis: SW48, indicated doses (Table 13)
Procedure: as §3

[5] = test system: histone H3 acetylation (AcH3) in SW48 cells; experiment: Western blot of histone H3 acetylation; type: cell-based, human; details: SW48, 24 h, FIG. 12c
Procedure: Human breast cancer MDA-MB-231 cells and human colorectal adenocarcinoma SW48 cells were analyzed. MDA-MB-231 and SW48 were obtained from Bioresource Collection and Research Center (BCRC, Taiwan). MDA-MB-231 and SW48 were grown at 37° C. under humidified air supplemented without CO2 in Leibovitz's L-15 (cat. #11415114, Thermo Fisher Scientific) containing 10% heat inactivated fetal calf serum (Thermo Scientific), 1× concentration of MycoZap antibiotics (cat. #VZA-2011, Lonza). Cells were treated with GNTbm compounds series, Chidamide or Entinostat for different time periods or at varied doses. Cells were treated with indicated doses for 24 h or cells were treated with indicated doses for different time periods. Cell pellets were dissolved with RIPA buffer (cat. #20-188, Merck) with protease and phosphatase inhibitors (cat. #K272, BioVision) and clarified by centrifugation. Equal amounts of total protein were resolved by SDS-PAGE and transferred to polyvinylidene fluoride membranes (cat. #1620177, BIO-RAD). Blots were incubated with primary antibodies against β-actin (cat. #sc-47778, Santa Cruz Biotechnology), Histone 3ac (cat. #61637, Active Motif), and HRP secondary antibodies anti-rabbit (ab6721, Abcam) and anti-mouse (sc-2005, Santa Cruz). Blots were developed using the ECL Western Blotting Substrate (cat. #sc-2048, Santa Cruz Biotechnology) Image blots were analyzed with the iBright FL1000 (Thermo Fisher Scientific) imaging systems.

SMILES | IC50 (M10) [nM] | IC50 (MDA-MB-453) [nM] | IC50 (MDA-MB-231) [nM] | IC50 (SW48) [nM] | IC50 (HDAC3 [1]) [nM] | IC50 (HDAC1) [nM] | IC50 (HDAC2) [nM] | Percentage of Cell Cycle Distribution G0/G1 (SW48 cells [3]; SW48, 0.125 μM) [%] | Percentage of Cell Cycle Distribution G2/M (SW48 cells [3]; SW48, 0.125 μM) [%] | Percentage of Cell Cycle Distribution S (SW48 cells [3]; SW48, 0.125 μM) [%] | Percentage of Cell Cycle Distribution G0/G1 (SW48 cells [3]; SW48, 0.5 μM) [%] | Percentage of Cell Cycle Distribution G2/M (SW48 cells [3]; SW48, 0.5 μM) [%] | Percentage of Cell Cycle Distribution S (SW48 cells [3]; SW48, 0.5 μM) [%] | Percentage of Cell Cycle Distribution G0/G1 (SW48 cells [3]; SW48, 1 μM) [%] | Percentage of Cell Cycle Distribution G2/M (SW48 cells [3]; SW48, 1 μM) [%] | Percentage of Cell Cycle Distribution S (SW48 cells [3]; SW48, 1 μM) [%] | Percentage of Cell Cycle Distribution G0/G1 (SW48 cells [3]; SW48, 2 μM) [%] | Percentage of Cell Cycle Distribution G2/M (SW48 cells [3]; SW48, 2 μM) [%] | Percentage of Cell Cycle Distribution S (SW48 cells [3]; SW48, 2 μM) [%] | Cell cycle arrest (SW48 cells [3]) | further results
Cc1ccc(/C=C/CC(=O)Nc2ccc(C(=O)Nc3ccc(F)cc3N)cc2)cn1 [GNTbm-03, 4-((E)-4-(6-methylpyridin-3-yl)but-3-enamido)-N-(2-amino-4-fluorophenyl)benzamide] | 6100 ± 134 | 1810 ± 8 | 26700 ± 5800 | 5260 ± 900 | 670 ± 60 | 560 ± 40 | 510 ± 50 |  |  |  |  |  |  |  |  |  |  |  |  |  | IC50 (SK-BR-3): 4070 ± 680 nM; Saturation Solubility (Saturation solubility; 90 minutes): BDL; Inhibition of HDAC 3 enzyme activities (kinetics) (HDAC3 [2]): stronger inhibition of HDAC 3 enzyme activities than GNTbm-01
Nc1cc(F)ccc1NC(=O)c1ccc(NC(=O)C/C=C/c2cccnc2)cn1 [GNTbm-04, 5-((E)-4-(pyridin-3-yl)but-3-enamido)-N-(2-amino-4-fluorophenyl)pyridine-2-carboxamide] | 1810 ± 60 | 1590 ± 3 | 1640 ± 4 | 600 ± 90 | 200 ± 100 | 380 ± 40 | 540 ± 7 | 56.9 | 25.2 | 17.9 | 63.2 | 19.3 | 17.5 | 67.2 | 18.9 | 13.9 | 70.5 | 18.7 | 10.8 | significant induced cell cycle arrest in G0/G1 phase in SW48 cells | IC50 (NCI-N87): 340 ± 40 nM; solubility at 90 min (Saturation solubility; water, thermodynamic from solid): 7.2 µg/mL (≈ 18.4 µM); Percentages of Cell Apoptosis (SW48 cells [4]; SW48, 0.125 μM): 2.9%; Percentages of Cell Apoptosis (SW48 cells [4]; SW48, 0.5 μM): 10.8%; Percentages of Cell Apoptosis (SW48 cells [4]; SW48, 1 μM): 20.8%; Percentages of Cell Apoptosis (SW48 cells [4]; SW48, 2 μM): 32%; Induction of apoptosis (SW48 cells [4]): potent in inducing apoptosis in SW48 cells; Histone 3 acetylation expression versus Chidamide [5]: more potent in inducing the histone 3 acetylation expression in SW48 cells than Chidamide
Nc1cc(F)ccc1NC(=O)c1ccc(NC(=O)C/C=C/c2cccnc2)cc1 [GNTbm-39, 4-((E)-4-(pyridin-3-yl)but-3-enamido)-N-(2-amino-4-fluorophenyl)benzamide] | 1960 ± 20 | 1840 ± 20 | 2930 ± 450 | 1730 ± 10 | 890 ± 130 | 3700 ± 40 | 680 ± 30 | 57.2 | 22.3 | 20.5 | 58.8 | 24.7 | 16.5 | 46.5 | 32.8 | 20.7 | 42.3 | 38.9 | 18.8 | significantly induced cell cycle arrest in the G2/M phase in SW48 cells | IC50 (NCI-N87): 640 ± 30 nM; Percentages of Cell Apoptosis (SW48 cells [4]; SW48, 0.125 μM): 9.5%; Percentages of Cell Apoptosis (SW48 cells [4]; SW48, 0.5 μM): 17.8%; Percentages of Cell Apoptosis (SW48 cells [4]; SW48, 1 μM): 25.4%; Percentages of Cell Apoptosis (SW48 cells [4]; SW48, 2 μM): 37.8%; Induction of apoptosis (SW48 cells [4]): potent in inducing apoptosis in SW48 cells; Histone 3 acetylation expression versus Chidamide [5]: more potent in inducing the histone 3 acetylation expression in SW48 cells than Chidamide
